Source: patent publication US12016314B2, “MicroRNA inhibitor therapy in systemic lupus erythematosus” (Ohio State Innovation Foundation, priority 2017, dated 2024)

B1: prolactin: hormone prolactin (Sigma), 10 ng/mL (protein, UniProt P01236 29-227, looked up)
Prolactin: LPICPGGAARCQVTLRDLFDRAVVLSHYIHNLSSEMFSEFDKRYTHGRGFITKAINSCHTSSLATPEDKEQAQQMNQKDFLSLIVSILRSWNEPLYHLVTEVRGMQEAPEAILSKAVEIEEQTKRLLEGMELIVSQVHPETKENEIYPVWSGLPSLQMADEESRLSAYYNLLHCLRRDSHKIDNYLKLLKCRIIHNNNC

Key:
TLR8 = TLR8 mRNA expression in primary human macrophages incubated with autologous serum; format: cell-based; settings: primary human macrophages of healthy donors, 24 h
Protocol: RNA was quantitated using a NanoDrop 1000 spectrophotometer (NanoDrop Products, Wilmington, DE). cDNA was synthesized using High Capacity cDNA Reverse Transcription Kit (Applied Biosystems, Foster City, CA) following the manufacturer's protocol and qPCR was performed using the TaqMan system (Applied Biosystems) using cDNA and gene specific primers in accordance with the manufacturer's protocol.
(§1) To target autologous EVs containing miR-21, primary human PBMCs were isolated from whole blood as indicated above, incubated in the presence of 20% autogolous serum, and treated with locked nucleic acid (LNA) sequences designed to antagonize miR-21 (Exiqon, Vedbaek, Denmark) following liposomal complexing with DOTAP (Roche) according to the manufacturer's protocol.

IL-12 = IL-12 secretion of THP-1 cells (ELISA); format: cell-based, human; settings: 24 h
IL-13 = IL-13 secretion of THP-1 cells (ELISA); format: cell-based, human; settings: 24 h
THP-1 cells = test: Nanoparticle tracking analysis of extracellular vesicle production by THP-1 cells; format: cell-based, human
Protocol: as §1
The NanoSight LM 10 system (NanoSight, Wiltshire, United Kingdom) was used to measure the rate of Brownian motion of particles to determine the size and quantification of EVs. Briefly, the sample was injected in a NanoSight cubicle and the size of particles was obtained by determining the motion in fluid passing across the chamber. The number of particles per milliliter was measured from a 0-160 nm range and was acquired from both experimental and control samples for comparison using area under the curve calculations obtained via the linear trapezoidal analysis method.

STAT1 = STAT1 mRNA transcript expression (qPCR) in hematopoietic cell lines THP-1 and K562; settings: THP-1 cells, separate hormone treatments, normalized to untreated cells

| Molecule | reduction of TLR8 mRNA expression relative to LNA-control (TLR8) | hormonal influence on STAT1 expression (STAT1) | further results |
| --- | --- | --- | --- |
| CCN(CC)CCCC(C)Nc1ccnc2cc(Cl)ccc12 (centres unmarked) [Chloroquine, chloroquine] | over 95% |  |  |
| LNA antagomiR-21: locked nucleic acid sequence designed to block miR-21, in liposomal complexes with DOTAP; CAACATCAGTCTGATAAGCT (LNA-modified, pattern not given here, delivered in liposomal complexes) | 46% |  |  |
| CCOCc1nc2c(N)nc3ccccc3c2n1CC(C)(C)O [R-848] |  |  | IL-12 expression induced compared to control treatment (IL-12): 5 fold; IL-13 expression upregulated relative to miR-control pseudoexosomes (IL-13): 1.75 fold; cumulative extracellular particle profiles (0-160 nm, area under the curve) relative to miR-control (THP-1 cells): 3.7 fold |
| CC(=O)[C@H]1CC[C@H]2[C@@H]3CCC4=CC(=O)CC[C@]4(C)[C@H]3CC[C@]12C [progesterone] |  | hormonal influence was only observed with estrogen treatment |  |
| C[C@]12CCC(=O)C[C@@H]1CC[C@@H]1[C@@H]2CC[C@]2(C)[C@@H](O)CC[C@@H]12 [dihydrotestosterone, 5α-androstatin-17β-ol-one] |  | hormonal influence was only observed with estrogen treatment |  |
| B1 |  | hormonal influence was only observed with estrogen treatment |  |
